In patent US11236046B2, “Substituted heterocyclic sulfonamide compounds useful as TRPA1 modulators” (Genentech, Inc., priority 2013, dated 2022):

Molecular target: human TRPA1 (Homo sapiens (Human), UniProt O75762)
Assay: FLIPR Tetra calcium influx assay, block of cinnamaldehyde-induced calcium influx in CHO cells expressing TRPA1 (human)
Type: cell-based
Conditions: 20 min compound incubation, 75 uM cinnamaldehyde (~EC80), Hill coefficient fixed to 1.5, read-out: hTRPA1 AUC IC50
Description: IC50 Determinations of Exemplified Compounds.
IC50s (effective concentration) of compounds on the human and rat TRPA1 channels were determined using a FLIPR Tetra instrument. CHO cells expressing TRPA1 were plated into 384-well plates, incubated overnight at 37C, and loaded with BD calcium indicator dye for 1 hr at 37° C. followed by 15 minutes. at room temperature. The assay buffer was Hank's Balanced Salt Solution (HBSS) containing 20 mM HEPES (pH readjusted to 7.4) along with 0.02% BSA.
Following dye load and plate cool down, compounds were added to the cells using FLIPR Tetra. Plates were then incubated with compounds for 20 minutes at room temperature prior to adding agonist. Following this incubation, ˜EC80 concentration of cinnamaldehyde (75 uM for human TRPA1 and 45 uM for rat TRPA1) was added to active the channels and block of cinnamaldehyde induced calcium influx was measured.
Fixing the Hill coefficient will generally reduce variability of the IC50 determination. The IC50s were individually examined to make sure the MIN and MAX points were set correctly prior to validation of the results.

human TRPA1, sequence (O75762 whole entry): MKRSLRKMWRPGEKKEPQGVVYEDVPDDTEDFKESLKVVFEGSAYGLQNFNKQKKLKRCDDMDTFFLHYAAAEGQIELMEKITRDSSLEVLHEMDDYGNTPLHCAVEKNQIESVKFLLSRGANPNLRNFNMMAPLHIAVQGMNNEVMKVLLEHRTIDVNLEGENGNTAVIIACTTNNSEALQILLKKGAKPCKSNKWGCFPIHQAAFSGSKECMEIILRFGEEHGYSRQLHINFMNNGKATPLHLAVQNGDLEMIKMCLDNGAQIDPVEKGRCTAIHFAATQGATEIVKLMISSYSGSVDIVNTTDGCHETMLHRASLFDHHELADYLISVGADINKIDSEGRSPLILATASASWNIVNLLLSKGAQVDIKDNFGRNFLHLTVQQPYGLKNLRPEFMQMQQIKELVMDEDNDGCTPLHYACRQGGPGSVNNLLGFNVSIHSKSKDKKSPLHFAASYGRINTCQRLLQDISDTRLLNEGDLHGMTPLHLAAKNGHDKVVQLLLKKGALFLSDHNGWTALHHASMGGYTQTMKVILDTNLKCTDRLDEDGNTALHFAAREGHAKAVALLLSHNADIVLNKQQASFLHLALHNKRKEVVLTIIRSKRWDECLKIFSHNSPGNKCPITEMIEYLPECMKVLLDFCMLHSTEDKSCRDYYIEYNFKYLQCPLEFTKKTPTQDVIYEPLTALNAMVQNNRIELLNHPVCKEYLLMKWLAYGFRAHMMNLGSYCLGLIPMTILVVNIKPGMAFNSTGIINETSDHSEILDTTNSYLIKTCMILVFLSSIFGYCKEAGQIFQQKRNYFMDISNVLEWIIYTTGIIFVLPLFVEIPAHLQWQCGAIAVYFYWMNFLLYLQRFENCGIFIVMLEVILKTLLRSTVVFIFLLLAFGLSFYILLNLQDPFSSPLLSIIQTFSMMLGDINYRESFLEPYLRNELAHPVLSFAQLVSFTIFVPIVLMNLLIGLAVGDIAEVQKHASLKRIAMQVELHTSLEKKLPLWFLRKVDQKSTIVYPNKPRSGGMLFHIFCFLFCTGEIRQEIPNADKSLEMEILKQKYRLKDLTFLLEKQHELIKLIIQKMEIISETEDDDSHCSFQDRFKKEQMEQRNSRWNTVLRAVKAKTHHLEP

`O=C(NCc1cc(-c2cnc(C(F)(F)F)nc2)nc(-c2cnc(C(F)(F)F)nc2)c1)[C@@H]1C[C@@H](F)CN1S(=O)(=O)c1ccc(F)cc1` [Example 61, (2S,4R)—N-[[2,6-bis[2-(trifluoromethyl)pyrimidin-5-yl]-4-pyridyl]methyl]-4-fluoro-1-(4-fluorophenyl)sulfonyl-pyrrolidine-2-carboxamide] and `O=C(NCc1cc(-c2ccc(C(F)(F)F)nc2)nc(-c2ccc(C(F)(F)F)nc2)c1)[C@@H]1C[C@@H](F)CN1S(=O)(=O)c1ccc(F)cc1` [Example 83, (2S,4R)—N-[[2,6-bis[6-(trifluoromethyl)-3-pyridyl]-4-pyridyl]methyl]-4-fluoro-1-(4-fluorophenyl)sulfonyl-pyrrolidine-2-carboxamide] are within 1.5-fold of each other in IC50: 71 nM for the first, 54.6 nM for the second.

First: O=C(NCc1cc(Cl)nc(-c2cnc(C(F)(F)F)nc2)c1)[C@@H]1C[C@@H](F)CN1S(=O)(=O)c1ccc(F)cc1 [Example 62, (2S,4R)—N-[[2-chloro-6-[2-(trifluoromethyl)pyrimidin-5-yl]-4-pyridyl]methyl]-4-fluoro-1-(4-fluorophenyl)sulfonyl-pyrrolidine-2-carboxamide]
Second: O=C(NCc1ccnc(-c2cnc(C(F)(F)F)cn2)c1)[C@@H]1C[C@@H](F)CN1S(=O)(=O)c1ccc(F)cc1 [Example 67, (2S,4R)-4-fluoro-1-(4-fluorophenyl)sulfonyl-N-[[2-[5-(trifluoromethyl)pyrazin-2-yl]-4-pyridyl]methyl]pyrrolidine-2-carboxamide]
The IC50 of the first is 21-fold lower: 14 nM for the first, 290 nM for the second. The first is the more potent here.

Compared with `O=C(NCc1cc(-c2ccc(C(F)F)cc2)ncn1)[C@@H]1C[C@@H](F)CN1S(=O)(=O)c1ccc(F)cc1` [Example 63, (2S,4R)—N-[[6-[4-(difluoromethyl)phenyl]pyrimidin-4-yl]methyl]-4-fluoro-1-(4-fluorophenyl)sulfonyl-pyrrolidine-2-carboxamide], `O=C(NCc1cc(-c2ccc(OC(F)F)cc2)ncn1)[C@@H]1C[C@@H](F)CN1S(=O)(=O)c1ccc(F)cc1` [Example 64, (2S,4R)—N-[[6-[4-(difluoromethoxy)phenyl]pyrimidin-4-yl]methyl]-4-fluoro-1-(4-fluorophenyl)sulfonyl-pyrrolidine-2-carboxamide] is 7.8-fold lower in IC50: 318 nM for the first, 41 nM for the second. The second is the more potent here.

Going from `O=C(NCc1cc(N2CCC(OC(F)(F)F)CC2)c(F)cn1)[C@@H]1C[C@@H](F)CN1S(=O)(=O)c1ccc(F)cc1` [Example 66, (2S,4R)-4-fluoro-1-(4-fluorophenyl)sulfonyl-N-[[5-fluoro-4-[4-(trifluoromethoxy)-1-piperidyl]-2-pyridyl]methyl]pyrrolidine-2-carboxamide] to `O=C(NCc1cc(N2CCC3(CC2)CC3(F)F)c(F)cn1)[C@@H]1C[C@@H](F)CN1S(=O)(=O)c1ccc(F)cc1` [Example 69, (2S,4R)—N-[[4-(2,2-difluoro-6-azaspiro[2.5]octan-6-yl)-5-fluoro-2-pyridyl]methyl]-4-fluoro-1-(4-fluorophenyl)sulfonyl-pyrrolidine-2-carboxamide], the IC50 falls from 22 nM to 14 nM (1.6-fold).

`O=C(NCc1cc(F)cc(-c2cnc(C(F)(F)F)nc2)c1)[C@@H]1[C@@H](F)CCN1S(=O)(=O)c1ccc(F)cc1` [Example 68, (2R,3S)-3-fluoro-1-(4-fluorophenyl)sulfonyl-N-[[3-fluoro-5-[2-(trifluoromethyl)pyrimidin-5-yl]phenyl]methyl]pyrrolidine-2-carboxamide] and `O=C(NCc1cc(-c2ccc(C(F)(F)F)cn2)ccn1)[C@@H]1[C@@H](F)CCN1S(=O)(=O)c1ccc(F)cc1` [Example 72, (2R,3S)-3-fluoro-1-(4-fluorophenyl)sulfonyl-N-[[4-[5-(trifluoromethyl)-2-pyridyl]-2-pyridyl]methyl]pyrrolidine-2-carboxamide] are the same in IC50: 7 nM for the first, 7 nM for the second.

Compared with `N#Cc1cnc(CNC(=O)[C@@H]2C[C@@H](F)CN2S(=O)(=O)c2ccc(F)cc2)cc1-c1ccc(C(F)(F)F)cc1` [Example 70, (2S,4R)—N-((5-cyano-4-(4-(trifluoromethyl)phenyl)pyridin-2-yl)methyl)-4-fluoro-1-(4-fluorophenylsulfonyl)pyrrolidine-2-carboxamide], `N#Cc1cnc(-c2ccc(C(F)(F)F)cc2)cc1CNC(=O)[C@@H]1C[C@@H](F)CN1S(=O)(=O)c1ccc(F)cc1` [Example 78, (2S,4R)—N-([5-cyano-2-[4-(trifluoromethyl)phenyl]pyridin-4-yl]methyl)-4-fluoro-1-[(4-fluorobenzene)sulfonyl]pyrrolidine-2-carboxamide] is 3.3-fold lower in IC50: 23 nM for the first, 7 nM for the second. The second is the more potent here.

First: N#Cc1cnc(CNC(=O)[C@@H]2C[C@@H](F)CN2S(=O)(=O)c2ccc(F)cc2)cc1-c1ccc(C(F)(F)F)nc1 [Example 71, (2S,4R)—N-[[5-cyano-4-[6-(trifluoromethyl)-3-pyridyl]-2-pyridyl]methyl]-4-fluoro-1-(4-fluorophenyl)sulfonyl-pyrrolidine-2-carboxamide]
Second: N#Cc1cnc(-c2ccc(C(F)(F)F)nc2)cc1CNC(=O)[C@@H]1C[C@@H](F)CN1S(=O)(=O)c1ccc(F)cc1 [Example 79, (2S,4R)—N-([5-cyano-2-[6-(trifluoromethyl)pyridin-3-yl]pyridin-4-yl]methyl)-4-fluoro-1-[(4-fluorobenzene)sulfonyl]pyrrolidine-2-carboxamide]
The IC50 of the first is 20-fold higher: 176 nM for the first, 9 nM for the second. The second is the more potent here.

Going from `O=C(NCc1cc(F)cc(C2CCC(C(F)(F)F)CN2)c1)[C@@H]1C[C@@H](F)CN1S(=O)(=O)c1ccc(F)cc1` (stereo partly drawn) [Example 74, (2S,4R)-4-fluoro-1-(4-fluorophenyl)sulfonyl-N-[[3-fluoro-5-[5-(trifluoromethyl)-2-piperidyl]phenyl]methyl]pyrrolidine-2-carboxamide] to `O=C(NCc1cc(F)cc(-c2ccc(C(F)F)cn2)c1)[C@@H]1C[C@@H](F)CN1S(=O)(=O)c1ccc(F)cc1` [Example 75, (2S,4R)—N-[[3-[5-(difluoromethyl)-2-pyridyl]-5-fluoro-phenyl]methyl]-4-fluoro-1-(4-fluorophenyl)sulfonyl-pyrrolidine-2-carboxamide], the IC50 falls from 192 nM to 31 nM (6.2-fold).

`O=C(NCc1cc(F)cc(-c2ccc(OC(F)F)nc2)c1)[C@@H]1C[C@@H](F)CN1S(=O)(=O)c1ccc(F)cc1` [Example 76, (2S,4R)—N-([3-[6-(difluoromethoxy)pyridin-3-yl]-5-fluorophenyl]methyl)-4-fluoro-1-[(4-fluorobenzene)sulfonyl]pyrrolidine-2-carboxamide] and `O=C(NCc1cc(-c2ccc(OC(F)F)cc2)c(F)cn1)[C@@H]1C[C@@H](F)CN1S(=O)(=O)c1ccc(F)cc1` [Example 77, (2S,4R)—N-([4-[4-(difluoromethoxy)phenyl]-5-fluoropyridin-2-yl]methyl)-4-fluoro-1-[(4-fluorobenzene)sulfonyl]pyrrolidine-2-carboxamide] are within 1.5-fold of each other in IC50: 39 nM for the first, 53 nM for the second.

Going from `O=C(NCc1cc(-c2ccc(C(F)(F)F)nc2)ncn1)[C@@H]1CC2(CC2)CN1S(=O)(=O)c1ccc(F)cc1` [Example 80] to `O=C(NCc1cc(-c2ccc(C(F)(F)F)nc2)ccn1)[C@@H]1C[C@@H](F)CN1S(=O)(=O)c1ccc(F)cc1` [Example 81, (2S,4R)-4-fluoro-1-(4-fluorophenyl)sulfonyl-N-[[4-[6-(trifluoromethyl)-3-pyridyl]-2-pyridyl]methyl]pyrrolidine-2-carboxamide], the IC50 rises from 44 nM to 187 nM (4.2-fold).

`O=C(NCc1cc(-c2cnc(C(F)(F)F)cn2)ccn1)[C@@H]1C[C@@H](F)CN1S(=O)(=O)c1ccc(F)cc1` [Example 82, (2S,4R)-4-fluoro-1-(4-fluorophenyl)sulfonyl-N-[[4-[5-(trifluoromethyl)pyrazin-2-yl]-2-pyridyl]methyl]pyrrolidine-2-carboxamide] was tested, and the IC50 was 189 nM.
